The text below walks through data of article PMC6107127, “Characteristics of the mitochondrial and cellular uptake of MPP^+, as probed by the fluorescent mimic, 4'I-MPP^+” (PLoS ONE, 2018).

Data set [1] in a line: Relative HPLC elution times and hydrophobicities. The format is physicochemical.
The test system of data set [2] is isolated intact MN9D mitochondria. The data set is described as follows: Effects of Ca2+ and inhibitors on MN9D mitochondrial uptake of 4'I-MPP+. On the set-up: species or system mouse. As to the method: Intact MN9D cell mitochondria were incubated with 200 μM 4'I-MPP^+ for 45 min at 37 °C in 0, 500 or 1000 nM Ca^2+ containing KCl buffer. When mNCX inhibitors (KBR7943, 2APB and CGP37157) were used, mitochondrial suspensions were initially incubated with 10, 25 or 50 μM inhibitor in KCl buffer for 10 min at 37 °C and then with 200 μM 4'I- MPP^+ for 45 min at 37 °C. After the incubations, samples were centrifuged at 7,000 x g at 4 °C for 10 min and the mitochondrial pellets were treated with 75 μL of 0.1 M HClO4. […] To visualize the effect of CGP37157 on the mitochondrial uptake of 4'I-MPP^+ in live cells, HepG2 cells grown in glass-bottomed plates were incubated with 50 μM CGP37157 for 30 min initially and then with 100 μM 4'I-MPP^+ and 200 nM MitoTracker Green FM in KRB-HEPES for 1 h at 37 °C. After incubation cells were washed and reconstituted with KRB-HEPES, pH 7.4 and 4'I-MPP^+ and MitoTracker Green FM fluorescence images of cells were recorded as detailed above. Controls were treated under the same experimental conditions, except that CGP37157 was omitted from the initial incubation.
S4 Fig. Effects of Benzamil, Verapamil, FFA, and ruthenium red on the MN9D mitochondrial uptake of 4'I-MPP+. MN9D mitochondrial suspensions were initially incubated with a 50 μM concentration of the desired agent (10 μM Ruthenium red) in KCl buffer for 10 min at 37 °C and then incubated with 200 μM 4'I-MPP+ for 45 min at 37 °C. After the incubations, the […] 4'I-MPP+ contents were quantified by RP-HPLC-UV as described in Material and methods. The data are represented as mean ± S.D (n=3).
(also on this page, place not known: contol 10uM Ru red BenzamilVerapamil FFA 4I' MPP+ uptake (nmoles/mg) 0.0 0.1 0.2 0.3 0.4 0.5)
(1 picture or pasted object on this page, not shown here)

The test system of another data set is HepG2 cells. Nature of the data set: Effect of CGP37157 and KBR7943 on 4'I-MPP+-mediated mitochondrial membrane depolarization (TMRM). The conditions noted are these: 50 μM pre-treatment 30 min, 100 μM 4'I-MPP+. Format: cell-based, human. How it is done: HepG2 cells grown in glass-bottomed plates for two days were treated with 50 μM CGP37157 or KBR7943 in KRB-HEPES for 30 min followed by 50 nM TMRM in KRB-HEPES for 45 min. Then plates were mounted on the stage of the microscope and mitochondrial membrane depolarization upon the treatment with 100 μM 4'I-MPP^+ was measured as a function of time as detailed above. The effect of CGP37157 on the 4'I-MPP^+ mediated mitochondrial membrane depolarization at longer time periods was monitored by observing the reduction of TMRM fluorescence from 0 to 4 h incubations in the presence or absence of CGP37157. HepG2 cells were incubated with or without 10 μM CGP37157 followed by 50 nM TMRM, and finally with 4'I-MPP^+ (100 μM, 0 or 4 h) and the intracellular TMRM fluorescence was recorded. Controls were carried out using an identical protocol except that either CGP37157 or 4'I-MPP^+ were omitted from the incubation media.

Data set [3] has as its system rat brain mitochondrial complex-I (NADH: ubiquinone oxidoreductase). Nature of the data set: Ubiquinone dependent NADH oxidation (complex-I inhibition). The format is biochemical. Particulars: 10 μM. How it is done:
Isolated rat brain mitochondria were lysed by freeze-thawing in hypotonic media containing 25 mM K3PO4 and 5 mM MgCl2, pH 7.2 [22]. The complex-I (i.e. NADH: ubiquinone oxidoreductase) activity of mitochondrial membrane fragments were determined according to the procedure of Birch-Machin and Turnbull. Briefly, mitochondrial membranes (50 μg protein) were incubated with 130 μM NADH (final concentration) and Antimycine A (2 μg/mL) in a 1.0 mL assay solution containing 25 mM K3PO4, 5 mM MgCl2, 2 mM KCN, 2.5 mg/mL bovine serum albumin, pH 7.2, for 2 min at 37 °C with or without rotenone, MPP^+ or 4'I-MPP^+ (for further details see the corresponding figure legends). The complex-I mediated ubiquinone dependent NADH oxidation was initiated by adding ubiquinone-1 to a final concentration of 65 μM and the initial rates of the reactions were monitored by following the decrease in absorbance at 340 nm with respect to 425 nm reference wavelength for 5 min.

[4] abbreviates: 50 μM inhibitor at 200 μM 4'I-MPP+.
The mark [5] stands for this setting: 50 μM agent, 200 μM 4'I-MPP+ (S4 Fig).

On to `C[n+]1ccc(-c2ccc(F)cc2)cc1` [4F' MPP^+], for which the “relative elution time (hydrophobicity)” value is 6.44 in data set [1] (Buffer:CH3CN 70:30), 5.68 in data set [1] (Buffer:CH3CN:MeOH 60:30:10) and 6.60 in data set [1] (Buffer:CH3CN:MeOH 65:25:10).

On to `C[n+]1ccc(-c2ccc(Br)cc2)cc1` [4Br' MPP^+], for which the “relative elution time (hydrophobicity)” value is recorded as 9.67 in data set [1] (Buffer:CH3CN 70:30), 7.74 in data set [1] (Buffer:CH3CN:MeOH 60:30:10) and 10.30 in data set [1] (Buffer:CH3CN:MeOH 65:25:10).

Take `NCCOB(c1ccccc1)c1ccccc1` [2APB]: in data set [2] (setting [4]), the “effect on uptake of 4'I-MPP+” value is “inhibit the uptake”.

On to `N=C(N)SCCc1ccc(OCc2ccc([N+](=O)[O-])cc2)cc1` [KBR7943], for which, in the data set on HepG2 cells, the “effect on 4'I-MPP+ mitochondrial membrane depolarization” value is given as “significantly reduced”. The “effect on uptake of 4'I-MPP+” value in data set [2] (setting [4]) was “inhibit the uptake”.

As for `COc1ccc(CCN(C)CCCC(C#N)(c2ccc(OC)c(OC)c2)C(C)C)cc1OC` (stereo not shown) [verapamil], the “effect on uptake of 4'I-MPP+” value in data set [2] (setting [5]) was “no significant effect”.

In the case of `C[n+]1ccc(-c2ccc(Cl)cc2)cc1` [4Cl' MPP^+], the “relative elution time (hydrophobicity)” value came out at 8.66 in data set [1] (Buffer:CH3CN 70:30), 7.08 in data set [1] (Buffer:CH3CN:MeOH 60:30:10) and 9.17 in data set [1] (Buffer:CH3CN:MeOH 65:25:10).

In the case of `C=C(C)[C@H]1Cc2c(ccc3c2O[C@@H]2COc4cc(OC)c(OC)cc4[C@@H]2C3=O)O1` [rotenone], in data set [3], the “inhibition of NADH oxidation (complex-I) activity” value is listed as “about 90%”.

As for `NC(=NCc1ccccc1)NC(=O)c1nc(Cl)c(N)nc1N` [benzamil], in data set [2] (setting [5]), the “effect on uptake of 4'I-MPP+” value is “no significant effect”.

`N.N.N.N.N.N.N.N.N.N.N.N.N.N.[Cl-].[Cl-].[Cl-].[Cl-].[Cl-].[Cl-].[O-2].[O-2].[Ru+3].[Ru+3].[Ru+4]` [ruthenium red]: in data set [2] (10 μM ruthenium red, 200 μM 4'I-MPP+), the “inhibition of 4'I-MPP+ uptake” value is recorded as ~ 10%.
